Results reported in patent US11339171B2, “MDM2 inhibitors” (Gan & Lee Pharmaceuticals, priority 2017, dated 2022).

What was measured:
[1] = biological target: T1, MDM2 (Homo sapiens, UniProt Q00987); experiment: Inhibition test of MDM2-P53 (GST-MDM2, Biotin-P53, Anti-GST-Tb, SA-XL665); assay type: binding
T1 construct: made in house
Summary of the method: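 HTRF-type assay using 4 nM GST-MDM2 (final), Biotin-P53, SA-XL665 and anti-GST-Tb in PBS with 0.1% BSA, 5 mM DTT and 1 mM AEBSF. Compounds in 5-fold serial dilutions over twelve points; incubation 90 min at 25° C with shaking before plate-reader read-out.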

[2] = test system: human osteosarcoma cell line SJSA-1; experiment: Inhibition of proliferation of human osteosarcoma cell line SJSA-1 (DAPI staining, In Cell Analyzer); settings: Homo sapiens, SJSA-1, 72 h, read-out: IC50 (nM), inhibitory activity on proliferation of human osteosarcoma cell line SJSA-1, SJSA-1, incubated 72 h
Protocol: 2.2 Experiment Preparation:
2.2.1 Preparation of a culture medium for human osteosarcoma cell line SJSA-1: RPMI1640+10% FBS+1% penicillin/streptomycin
2.2.2 Preparation of a test compound solution:
a. the test compound solution with a certain concentration was taken, and diluted with the culture medium to obtain a compound solution with a final concentration of 20 μM;
b. 200 μL of a culture medium containing 0.2% DMSO (dimethyl sulfoxide) was added into H2-H10 of a 96-well plate; 300 μl of the above solution was added into H1; and
c. 100 μL was taken out from well H1, added into H2, and mixed well; then 100 μl of the resultant solution was taken and added into H3, and dilution was carried out in sequence until H9 to obtain the 3-fold serial dilution of the test compound.
2.3 Experimental Process:
2.3.1 SJSA-1 cells were inoculated into a 96-well cell plate with black transparent bottom at 4000 cells/100 μl/well, and cultured overnight at 37° C.;
2.3.3 Fixation: the cell plate was taken out, the culture medium was removed, and 50 μL of 4% paraformaldehyde solution was added to each well to fix for 10 min;
2.3.4 50 μl of 0.1 M glycine was added to neutralize for 10 min;
2.3.5 Washing was performed with 1×PBS (phosphate buffer solution pH7.2) twice;
2.3.6 Permeabilization: 50 μL of 0.2% TritonX-100 (Triton) was added per well, and permeabilization was carried out at room temperature for 10 min;
2.3.7 Washing was performed with 1×PBS (phosphate buffer solution pH7.2) twice;
2.3.9 Washing was performed with 1×PBS (phosphate buffer solution pH7.2) for three times; and
2.3.10 Scanning and analysis were performed by In cell analyzer.
The inhibition rate of each compound at each concentration point was calculated according to the following formula, and curve fitting was performed by GraphPad Prism 6.0 software to obtain the IC50 value.

T1 sequence (Q00987 whole entry): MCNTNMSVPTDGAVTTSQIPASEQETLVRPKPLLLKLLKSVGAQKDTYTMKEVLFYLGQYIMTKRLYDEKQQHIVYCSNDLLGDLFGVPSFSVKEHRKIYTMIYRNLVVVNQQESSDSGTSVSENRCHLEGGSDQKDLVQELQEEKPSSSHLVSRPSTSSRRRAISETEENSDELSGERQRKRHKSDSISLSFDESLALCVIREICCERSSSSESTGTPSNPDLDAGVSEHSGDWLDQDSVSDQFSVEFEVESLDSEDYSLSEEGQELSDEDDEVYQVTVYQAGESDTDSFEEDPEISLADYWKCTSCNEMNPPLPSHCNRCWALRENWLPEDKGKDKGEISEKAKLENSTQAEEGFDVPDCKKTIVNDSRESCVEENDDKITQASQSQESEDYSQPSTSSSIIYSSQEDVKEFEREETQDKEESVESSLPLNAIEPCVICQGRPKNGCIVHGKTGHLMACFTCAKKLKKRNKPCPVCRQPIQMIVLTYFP

Row | Structure (SMILES) | IC50 [1] [nM] | IC50 [2] [nM]
1 | COc1cc(OC(C)C)ncc1-c1nc2c(n1C(C)C)[C@]1(C(=O)Nc3cc(Cl)ccc31)N(c1cc(Cl)ccc1C)C2=O [Example R-69, (R)-6-chloro-5′-(5-chloro-2-methylphenyl)-2′-(6-isopropoxy-4-methoxypyridin-3-yl)-3′-isopropyl-3′H-spiro[dihydroindole-3,4′-pyrrolo[3,4-d]imidazole]-2,6′(5′H)-dione] | 636 | 6580
2 | COc1ccc(CC(=O)N(C)C)cc1-c1nc2c(n1C(C)C)[C@]1(C(=O)Nc3cc(Cl)ccc31)N(c1cc(Cl)ccc1C)C2=O [Example R-70, (R)-2-(3-(6-chloro-5′-(5-chloro-2-methylphenyl)-3′-isopropyl-2,6′-dioxo-5′,6′-dihydro-3′H-spiro[dihydroindole-3,4′-pyrrolo[3,4-d]imidazole]-2′-yl)-4-methoxyphenyl)-N,N-dimethylacetamide] | 111 | 4210
3 | COc1ccc(N2C(=O)c3nc(-c4ccc(N)cc4OC)n(C(C)C)c3[C@]23C(=O)Nc2cc(Cl)ccc23)cc1Cl [Example R-71, (R)-2′-(4-amino-2-methoxyphenyl)-6-chloro-5′-(3-chloro-4-methoxyphenyl)-3′-isopropyl-3′H-spiro[dihydroindole-3,4′-pyrrolo[3,4-d]imidazole]-2,6′(5′H)-dione] | 100 | 7020
4 | CCOc1cc(OC)c(-c2nc3c(n2C(C)C)[C@]2(C(=O)Nc4cc(Cl)ccc42)N(c2cc(Cl)ccc2C)C3=O)cn1 [Example R-72, (R)-6-chloro-5′-(5-chloro-2-methylphenyl)-2′-(6-ethoxy-4-methoxypyridin-3-yl)-3′-isopropyl-3′H-spiro[dihydroindole-3,4′-pyrrolo[3,4-d]imidazole]-2,6′(5′H)-dione] | 214 | 3480
5 | COc1cc(N)c(C)cc1-c1nc2c(n1C(C)C)[C@]1(C(=O)Nc3cc(Cl)ccc31)N(c1cc(Cl)ccc1C)C2=O [Example R-74, (R)-2′-(4-amino-2-methoxy-5-methylphenyl)-6-chloro-5′-(5-chloro-2-methylphenyl)-3′-isopropyl-3′H-spiro[dihydroindole-3,4′-pyrrolo[3,4-d]imidazole]-2,6′(5′H)-dione] | 93.4 | 1840
6 | COc1cc(N)c(F)cc1-c1nc2c(n1C(C)C)[C@]1(C(=O)Nc3cc(Cl)ccc31)N(c1cc(Cl)ccc1C)C2=O [Example R-75, (R)-2′-(4-amino-5-fluoro-2-methoxyphenyl)-6-chloro-5′-(5-chloro-2-methylphenyl)-3′-isopropyl-3′H-spiro[dihydroindole-3,4′-pyrrolo[3,4-d]imidazole]-2,6′(5′H)-dione] | 122 | 3040
7 | COc1cc(N(C)C)c(F)cc1-c1nc2c(n1C(C)C)[C@]1(C(=O)Nc3cc(Cl)ccc31)N(c1cc(Cl)ccc1C)C2=O [Example R-78] | 222 | 1360
8 | COc1cc(N(C)C)ccc1-c1nc2c(n1C(C)C)[C@]1(C(=O)Nc3cc(Cl)ccc31)N(c1cc(Cl)ccc1F)C2=O [Example R-81, (R)-6-chloro-5′-(5-chloro-2-fluorophenyl)-2′-(4-(dimethylamino)-2-methoxyphenyl)-3′-isopropyl-3′H-spiro[dihydroindole-3,4′-pyrrolo[3,4-d]imidazole]-2,6′(5′H)-dione] | 53.3 | 1600
9 | COc1cc(OC)c(-c2nc3c(n2C(C)C)[C@]2(C(=O)Nc4cc(Cl)ccc42)N(c2cc(Cl)ccc2C)C3=O)cc1C [Example R-83, (R)-6-chloro-5′-(5-chloro-2-methylphenyl)-2′-(2,4-dimethoxy-5-methylphenyl)-3′-isopropyl-3′H-spiro[dihydroindole-3,4′-pyrrolo[3,4-d]imidazole]-2,6′(5′H)-dione] | 87.6 | 589
10 | COc1cc(C(F)(F)F)ccc1-c1nc2c(n1C(C)C)[C@]1(C(=O)Nc3cc(Cl)ccc31)N(c1cc(Cl)ccc1C)C2=O [Example R-85, (R)-6-chloro-5′-(5-chloro-2-methylphenyl)-3′-isopropyl-2′-(2-methoxy-4-(trifluoromethyl)phenyl)-3′H-spiro[dihydroindole-3,4′-pyrrolo[3,4-d]imidazole]-2,6′(5′H)-dione] | 494 | 2190
11 | COc1cc(OC(F)(F)F)ccc1-c1nc2c(n1C(C)C)[C@]1(C(=O)Nc3cc(Cl)ccc31)N(c1cc(Cl)ccc1C)C2=O [Example R-87, (R)-6-chloro-5′-(5-chloro-2-methylphenyl)-3′-isopropyl-2′-(2-methoxy-4-(trifluoromethoxy)phenyl)-3′H-spiro[dihydroindole-3,4′-pyrrolo[3,4-d]imidazole]-2,6′(5′H)-dione] | 473 | 7350
12 | COc1cc(N(C)C)c(C)cc1-c1nc2c(n1C(C)C)[C@]1(C(=O)Nc3cc(Cl)ccc31)N(c1cc(Cl)ccc1C)C2=O [Example R-91, (R)-6-chloro-5′-(5-chloro-2-methylphenyl)-2′-(4-(dimethylamino)-2-methoxy-5-methylphenyl)-3′-isopropyl-3′H-spiro[dihydroindole-3,4′-pyrrolo[3,4-d]imidazole]-2,6′(5′H)-dione] | 461 | 993
13 | COc1cc(OC)c(-c2nc3c(n2C(C)C)[C@]2(C(=O)Nc4cc(Cl)ccc42)N(c2cc(Cl)ccc2C)C3=O)cc1F [Example R-92, (R)-6-chloro-5′-(5-chloro-2-methylphenyl)-2′-(5-fluoro-2,4-dimethoxyphenyl)-3′-isopropyl-3′H-spiro[dihydroindole-3,4′-pyrrolo[3,4-d]imidazole]-2,6′(5′H)-dione] | 378 | 4880
14 | CCOc1ncc(-c2nc3c(n2C(C)C)[C@]2(C(=O)Nc4cc(Cl)ccc42)N(c2cc(Cl)ccc2F)C3=O)c(OC)n1 [Example R-97, (R)-6-chloro-5′-(5-chloro-2-fluorophenyl)-2′-(2-ethoxy-4-methoxypyrimidin-5-yl)-3′-isopropyl-3′H-spiro[dihydroindole-3,4′-pyrrolo[3,4-d]imidazole]-2,6′(5′H)-dione] | 5.73 | 396
15 | CCN(C)c1ccc(-c2nc3c(n2C(C)C)[C@]2(C(=O)Nc4cc(Cl)ccc42)N(c2cc(Cl)ccc2C)C3=O)c(OC)c1 [Example R-99, (R)-6-chloro-5′-(5-chloro-2-methylphenyl)-2′-(4-(ethyl(methyl)amino)-2-methoxyphenyl)-3′-isopropyl-3′H-spiro[dihydroindole-3,4′-pyrrolo[3,4-d]imidazole]-2,6′(5′H)-dione] | 115 | 1470
16 | COc1cc(C2CC2)ncc1-c1nc2c(n1C(C)C)[C@]1(C(=O)Nc3cc(Cl)ccc31)N(c1cc(Cl)ccc1C)C2=O [Example R-103, (R)-6-chloro-5′-(5-chloro-2-methylphenyl)-2′-(6-cyclopropyl-4-methoxypyridin-3-yl)-3′-isopropyl-3′H-spiro[dihydroindole-3,4′-pyrrolo[3,4-d]imidazole]-2,6′(5′H)-dione] | 181 | 2430
17 | COc1cc(N(C)C)ccc1-c1nc2c(n1C(C)C)[C@]1(C(=O)Nc3cc(Cl)ccc31)N(c1cccc(Cl)c1)C2=O [Example R-104, (R)-6-chloro-5′-(3-chlorophenyl)-2′-(4-(dimethylamino)-2-methoxyphenyl)-3′-isopropyl-3′H-spiro[dihydroindole-3,4′-pyrrolo[3,4-d]imidazole]-2,6′(5′H)-dione] | 146 | 6890
18 | CCc1ccc(-c2nc3c(n2C(C)C)[C@]2(C(=O)Nc4cc(Cl)ccc42)N(c2cccc(Cl)c2)C3=O)c(OC)c1 [Example R-107, (R)-6-chloro-5′-(3-chlorophenyl)-2′-(4-ethyl-2-methoxyphenyl)-3′-isopropyl-3′H-spiro[dihydroindole-3,4′-pyrrolo[3,4-d]imidazole]-2,6′(5′H)-dione] | 536 | 3240
19 | COc1cc(C)ccc1-c1nc2c(n1C(C)C)[C@]1(C(=O)Nc3cc(Cl)ccc31)N(c1cccc(Cl)c1)C2=O [Example R-109, (R)-6-chloro-5′-(3-chlorophenyl)-3′-isopropyl-2′-(2-methoxy-4-methylphenyl)-3′H-spiro[dihydroindole-3,4′-pyrrolo[3,4-d]imidazole]-2,6′(5′H)-dione] | 381 | 8200
20 | COc1cc(N(C)C)ncc1-c1nc2c(n1C(C)C)[C@]1(C(=O)Nc3cc(Cl)ccc31)N(c1cc(Cl)ccc1C)C2=O [Example R-111, (R)-6-chloro-5′-(5-chloro-2-methylphenyl)-2′-(6-(dimethylamino)-4-methoxypyridin-3-yl)-3′-isopropyl-3′H-spiro[dihydroindole-3,4′-pyrrolo[3,4-d]imidazole]-2,6′ (5′H)-dione] | 110 | 561
21 | COc1cc(N(C)C)ncc1-c1nc2c(n1C(C)C)[C@]1(C(=O)Nc3cc(Cl)ccc31)N(c1cccc(Cl)c1)C2=O [Example R-113, (R)-6-chloro-5′-(3-chlorophenyl)-2′-(6-(dimethylamino)-4-methoxypyridin-3-yl)-3′-isopropyl-3′H-spiro[dihydroindole-3,4′-pyrrolo[3,4-d]imidazole]-2,6′(5′H)-dione] | 50.5 | 2170
22 | COc1cc(OC)c(-c2nc3c(n2C(C)C)[C@]2(C(=O)Nc4cc(Cl)ccc42)N(c2cccc(Cl)c2)C3=O)cn1 [Example R-115, (R)-6-chloro-5′-(3-chlorophenyl)-2′-(4,6-dimethoxypyridin-3-yl)-3′-isopropyl-3′H-spiro[dihydroindole-3,4′-pyrrolo[3,4-d]imidazole]-2,6′(5′H)-dione] | 269 | 26.9
23 | COc1nc(OC(C)C)ncc1-c1nc2c(n1C(C)C)[C@]1(C(=O)Nc3cc(Cl)ccc31)N(c1cc(Cl)ccc1C)C2=O [Example R-126, (R)-6-chloro-5′-(5-chloro-2-methylphenyl)-2′-(2-isopropoxy-4-methoxypyrimidin-5-yl)-3′-isopropyl-3′H-spiro[dihydroindole-3,4′-pyrrolo[3,4-d]imidazole]-2,6′(5′H)-dione] | 193 | 1590
